Data as given in ChEMBL document CHEMBL1155278, “3,4-Diaryl-isoxazoles and -imidazoles as potent dual inhibitors of p38alpha mitogen activated protein kinase and casein kinase 1delta” (J Med Chem, 2009).

Key:
[1] = molecular target: T1, Casein kinase I isoform delta (Homo sapiens, UniProt P48730); assay: Inhibition of recombinant CK1delta kinase domain by Cherenkov counting
Target sequence in this assay (P48730 whole entry, the tested form may be a part, canonical isoform): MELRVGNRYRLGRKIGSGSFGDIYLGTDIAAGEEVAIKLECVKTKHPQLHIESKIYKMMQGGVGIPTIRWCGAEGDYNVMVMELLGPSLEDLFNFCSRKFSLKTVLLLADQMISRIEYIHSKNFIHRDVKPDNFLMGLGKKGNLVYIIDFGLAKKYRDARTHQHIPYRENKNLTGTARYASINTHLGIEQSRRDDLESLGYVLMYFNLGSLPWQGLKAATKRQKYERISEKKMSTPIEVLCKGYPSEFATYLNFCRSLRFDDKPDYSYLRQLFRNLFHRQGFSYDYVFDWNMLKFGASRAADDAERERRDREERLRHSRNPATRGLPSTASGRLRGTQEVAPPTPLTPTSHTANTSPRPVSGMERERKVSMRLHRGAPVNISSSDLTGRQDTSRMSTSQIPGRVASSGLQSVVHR

[2] = molecular target: T2, Mitogen-activated protein kinase 14 (Homo sapiens, UniProt Q16539); assay: Inhibition of p38alpha by Cherenkov counting
[3] = molecular target: T1, Casein kinase I isoform delta; assay: Inhibition of GST-fused human full length CK1delta expressed in Escherichia coli at 1 uM
Target sequence in this assay (P48730 whole entry, looked up, the tested form may be a part, canonical isoform): as the sequence (P48730 whole entry, the tested form may be a part, canonical isoform) above

[4] = molecular target: T1, Casein kinase I isoform delta; assay: Inhibition of human CK1delta
Target sequence in this assay (P48730 whole entry, the tested form may be a part, canonical isoform): as above

[5] = molecular target: T3, Casein kinase I isoform delta (Rattus norvegicus, UniProt Q06486); assay: Inhibition of GST-fused rat CK1delta by Cherenkov counting in presence of 20 uM ATP
[6] = molecular target: T2, Mitogen-activated protein kinase 14; conditions: 10 uM
[7] = molecular target: T3, Casein kinase I isoform delta
[8] = molecular target: Casein kinase I isoform delta (Oryctolagus cuniculus, UniProt P81123); assay: Inhibition of rabbit skeletal muscle CK1delta by liquid scintillation counting
[9] = molecular target: T1, Casein kinase I isoform delta; assay: Inhibition of GST-fused human full length CK1delta expressed in Escherichia coli at 25 uM
Target sequence in this assay (P48730 whole entry, looked up, the tested form may be a part, canonical isoform): as the sequence (P48730 whole entry, the tested form may be a part, canonical isoform) above

[10] = Cell cycle arrest in human AC1-M88 cells assessed as accumulation at G1 phase at 3.32 uM after 48 hrs by propidium iodide staining-based FACS analysis; format: functional
[11] = Cell cycle arrest in human AC1-M88 cells assessed as accumulation at G2 phase at 3.32 uM after 48 hrs by propidium iodide staining-based FACS analysis; format: functional
[12] = Cell cycle arrest in human AC1-M88 cells assessed as accumulation at subG1 phase at 3.32 uM after 48 hrs by propidium iodide staining-based FACS analysis; format: functional
[13] = Cell cycle arrest in human AC1-M88 cells assessed as accumulation at S phase at 3.32 uM after 48 hrs by propidium iodide staining-based FACS analysis; format: functional

T3 sequence (Q06486 whole entry, the tested form may be a part, canonical isoform): as the sequence (P48730 whole entry, the tested form may be a part, canonical isoform) above, with I381V counted along it
T2 sequence (Q16539 whole entry, the tested form may be a part, canonical isoform): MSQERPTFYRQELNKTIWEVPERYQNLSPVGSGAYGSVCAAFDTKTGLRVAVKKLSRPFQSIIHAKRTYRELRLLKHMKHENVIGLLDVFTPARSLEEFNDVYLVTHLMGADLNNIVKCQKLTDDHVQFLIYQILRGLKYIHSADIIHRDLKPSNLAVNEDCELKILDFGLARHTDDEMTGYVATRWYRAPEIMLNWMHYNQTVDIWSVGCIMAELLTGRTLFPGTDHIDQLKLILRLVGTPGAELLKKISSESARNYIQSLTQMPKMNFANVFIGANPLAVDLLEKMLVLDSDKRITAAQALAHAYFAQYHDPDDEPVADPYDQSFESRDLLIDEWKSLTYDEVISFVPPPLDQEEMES
Casein kinase I isoform delta (Oryctolagus cuniculus, UniProt P81123), sequence (P81123 whole entry, the tested form may be a part, canonical isoform): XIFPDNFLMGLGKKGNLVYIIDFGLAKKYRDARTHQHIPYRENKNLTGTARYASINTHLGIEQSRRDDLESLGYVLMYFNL

`CC(C)c1onc(-c2ccc(F)cc2)c1-c1ccnc(NC2CCOCC2)c1` showed an IC50 [1] of 2500 nM and an IC50 [2] of 60 nM.
In the case of `Oc1ccc(-c2nc(-c3ccc(F)cc3)c(-c3ccncc3)[nH]2)cc1`, the inhibition [3] is reported as 79%.
In the case of `COc1cc(OC)c(C=C2C(O)=Nc3ccccc32)c(OC)c1` [IC261], the IC50 [4] is reported as 1000 nM.
Compound `CC(C)c1onc(-c2ccc(F)cc2)c1-c1ccnc(N[C@@H](C)c2ccccc2)c1` has an IC50 [1] of 1600 nM and an IC50 [2] of 6 nM.
With `CC(=O)Nc1cc(-c2c(-c3ccc(F)cc3)noc2C(C)C)ccn1` the IC50 [1] was 700 nM, the IC50 [5] was 330 nM and the IC50 [2] was 300 nM.
For `NC(=O)c1ccc(-c2nc(-c3ccc4c(c3)OCCO4)c(-c3ccccn3)[nH]2)cc1`, the inhibition [6] was 62% and the IC50 [7] was 300 nM.
`NCCNS(=O)(=O)c1ccc(Cl)c2ccncc12` gave an IC50 [8] of 10000 nM and an inhibition [9] of 88%.
Compound `C[S+]([O-])c1ccc(-c2nc(-c3ccc(F)cc3)c(-c3ccncc3)[nH]2)cc1` (centres undefined) has an inhibition [3] of 92%.
`CC(Oc1ccccc1)C(=O)Nc1cc(-c2c(-c3ccc(F)cc3)noc2C(C)C)ccn1` (racemic) gave an IC50 [1] of 820 nM, an IC50 [5] of 340 nM and an IC50 [2] of 890 nM.
Compound `COc1ccc(/C=C/C(=O)Nc2cc(-c3c(-c4ccc(F)cc4)noc3C(C)C)ccn2)c(OC)c1` has an IC50 [1] of 33 nM, an Activity [10] of 33% and an IC50 [5] of 47 nM. It also gave an Activity [11] of 14.8%, an IC50 [2] of 2520 nM and an Activity [12] of 34.4%. For the same compound, the Activity [13] was 14.8%.
Work on `CC(C)c1onc(-c2ccc(F)cc2)c1-c1ccnc(NC(=O)Cc2ccc(F)cc2)c1` yielded an IC50 [1] of 110 nM, an IC50 [5] of 90 nM and an IC50 [2] of 1560 nM.
`CC(C)c1onc(-c2ccc(F)cc2)c1-c1ccnc(N[C@H](C)c2ccccc2)c1` showed an IC50 [2] of 450 nM.
`CCC(C)Nc1cc(-c2c(-c3ccc(F)cc3)noc2C(C)C)ccn1` (centres undefined) showed an IC50 [2] of 30 nM.
